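GI50: concentration for 50% inhibition of growth. At the TGI there is no net growth.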
Legend:
Test in all cases: inhibition of tumour cell growth, NCI panel, 384-well format
PC-3 prostate = system: PC-3 prostate
SF-295 CNS = system: SF-295 CNS
OVCAR-5 ovarian = system: OVCAR-5 ovarian
CAKI-1 renal = system: CAKI-1 renal
SF-539 CNS = system: SF-539 CNS
SF-268 CNS = system: SF-268 CNS
SK-MEL-5 melanoma = system: SK-MEL-5 melanoma
HL-60(TB) leukemia = system: HL-60(TB) leukemia
SK-OV-3 ovarian = system: SK-OV-3 ovarian
SK-MEL-2 melanoma = system: SK-MEL-2 melanoma
BT-549 breast = system: BT-549 breast
UACC-62 melanoma = system: UACC-62 melanoma
SNB-75 CNS = system: SNB-75 CNS
MDA-MB-231 breast = system: MDA-MB-231 breast
IGROV1 ovarian = system: IGROV1 ovarian
MDA-MB-468 breast = system: MDA-MB-468 breast
UACC-257 melanoma = system: UACC-257 melanoma
HOP-62 NSCLC = system: HOP-62 NSCLC
ACHN renal = system: ACHN renal
LOX IMVI melanoma = system: LOX IMVI melanoma
MOLT-4 leukemia = system: MOLT-4 leukemia
MALME-3M melanoma = system: MALME-3M melanoma
HOP-92 NSCLC = system: HOP-92 NSCLC
HCT-116 colon = system: HCT-116 colon
NCI-H23 lung = system: NCI-H23 lung
RXF 393 renal = system: RXF 393 renal
SR leukemia = system: SR leukemia
MCF7 breast = system: MCF7 breast
EKVX NSCLC = system: EKVX NSCLC
HS 578T breast = system: HS 578T breast
OVCAR-8 ovarian = system: OVCAR-8 ovarian
SNB-19 CNS = system: SNB-19 CNS
HCT-15 colon = system: HCT-15 colon
NCI/ADR-RES ovarian = system: NCI/ADR-RES ovarian
NCI-H522 lung = system: NCI-H522 lung
UO-31 renal = system: UO-31 renal
MDA-MB-435 melanoma = system: MDA-MB-435 melanoma
M14 melanoma = system: M14 melanoma
A549 NSCLC = system: A549 NSCLC
SW-620 colon = system: SW-620 colon
HT29 colon = system: HT29 colon
RPMI-8226 leukemia = system: RPMI-8226 leukemia
NCI-H460 NSCLC = system: NCI-H460 NSCLC
CCRF-CEM leukemia = system: CCRF-CEM leukemia
OVCAR-4 ovarian = system: OVCAR-4 ovarian
SN12C renal = system: SN12C renal
OVCAR-3 ovarian = system: OVCAR-3 ovarian

O=C(c1cc(Cc2n[nH]c(=O)c3ccccc23)ccc1F)N1CCN(C(=O)C2CC2)CC1
GI50 (PC-3 prostate): > 100 µM | TGI (PC-3 prostate): > 100 µM | GI50 (SF-295 CNS): 4.68 µM | TGI (SF-295 CNS): > 37.3 µM | GI50 (OVCAR-5 ovarian): > 100 µM | TGI (OVCAR-5 ovarian): > 100 µM | GI50 (CAKI-1 renal): 52.4 µM | TGI (CAKI-1 renal): > 100 µM | GI50 (SF-539 CNS): 11.8 µM | TGI (SF-539 CNS): > 100 µM | GI50 (SF-268 CNS): 24.9 µM | TGI (SF-268 CNS): > 90.3 µM | GI50 (SK-MEL-5 melanoma): 35 µM | TGI (SK-MEL-5 melanoma): > 73.1 µM | GI50 (HL-60(TB) leukemia): 21.2 µM | TGI (HL-60(TB) leukemia): > 100 µM | GI50 (SK-OV-3 ovarian): > 55.5 µM | TGI (SK-OV-3 ovarian): > 100 µM | GI50 (SK-MEL-2 melanoma): > 100 µM | TGI (SK-MEL-2 melanoma): > 100 µM | GI50 (BT-549 breast): 17.2 µM | TGI (BT-549 breast): > 75.8 µM | GI50 (UACC-62 melanoma): > 95.7 µM | TGI (UACC-62 melanoma): > 100 µM | GI50 (SNB-75 CNS): 22.5 µM | TGI (SNB-75 CNS): > 95.9 µM | GI50 (MDA-MB-231 breast): > 61.1 µM | TGI (MDA-MB-231 breast): > 100 µM | GI50 (IGROV1 ovarian): > 62.7 µM | TGI (IGROV1 ovarian): > 100 µM | GI50 (MDA-MB-468 breast): 3.76 µM | TGI (MDA-MB-468 breast): 16.7 µM | GI50 (UACC-257 melanoma): > 100 µM | TGI (UACC-257 melanoma): > 100 µM | GI50 (HOP-62 NSCLC): 4.92 µM | TGI (HOP-62 NSCLC): > 75.5 µM | GI50 (ACHN renal): > 81.8 µM | TGI (ACHN renal): > 100 µM | GI50 (LOX IMVI melanoma): 23 µM | TGI (LOX IMVI melanoma): > 100 µM | GI50 (MOLT-4 leukemia): 1.43 µM | TGI (MOLT-4 leukemia): 3.03 µM | GI50 (MALME-3M melanoma): > 100 µM | TGI (MALME-3M melanoma): > 100 µM | GI50 (HOP-92 NSCLC): 57.3 µM | TGI (HOP-92 NSCLC): > 100 µM | GI50 (HCT-116 colon): 8.27 µM | TGI (HCT-116 colon): > 100 µM | GI50 (NCI-H23 lung): 16.3 µM | TGI (NCI-H23 lung): > 100 µM | GI50 (RXF 393 renal): > 37.6 µM | TGI (RXF 393 renal): > 79.6 µM | GI50 (SR leukemia): 1.37 µM | TGI (SR leukemia): 3.38 µM | GI50 (MCF7 breast): 28.6 µM | TGI (MCF7 breast): > 100 µM | GI50 (EKVX NSCLC): 97.7 µM | TGI (EKVX NSCLC): > 100 µM | GI50 (HS 578T breast): 25.9 µM | TGI (HS 578T breast): > 100 µM | GI50 (OVCAR-8 ovarian): 22 µM | TGI (OVCAR-8 ovarian): > 100 µM | GI50 (SNB-19 CNS): 99.2 µM | TGI (SNB-19 CNS): > 100 µM | GI50 (HCT-15 colon): > 100 µM | TGI (HCT-15 colon): > 100 µM | GI50 (NCI/ADR-RES ovarian): > 100 µM | TGI (NCI/ADR-RES ovarian): > 100 µM | GI50 (NCI-H522 lung): 51.7 µM | TGI (NCI-H522 lung): > 100 µM | GI50 (UO-31 renal): > 92.7 µM | TGI (UO-31 renal): > 100 µM | GI50 (MDA-MB-435 melanoma): > 100 µM | TGI (MDA-MB-435 melanoma): > 100 µM | GI50 (M14 melanoma): > 91.5 µM | TGI (M14 melanoma): > 100 µM | GI50 (A549 NSCLC): 44.9 µM | TGI (A549 NSCLC): > 100 µM | GI50 (SW-620 colon): > 35 µM | TGI (SW-620 colon): > 100 µM | GI50 (HT29 colon): > 100 µM | TGI (HT29 colon): > 100 µM | GI50 (RPMI-8226 leukemia): 12.7 µM | TGI (RPMI-8226 leukemia): > 100 µM | GI50 (NCI-H460 NSCLC): 5.78 µM | TGI (NCI-H460 NSCLC): > 100 µM | GI50 (CCRF-CEM leukemia): 6.5 µM | TGI (CCRF-CEM leukemia): > 100 µM | GI50 (OVCAR-4 ovarian): > 80.3 µM | TGI (OVCAR-4 ovarian): > 100 µM | GI50 (SN12C renal): > 100 µM | TGI (SN12C renal): > 100 µM | GI50 (OVCAR-3 ovarian): 60.5 µM | TGI (OVCAR-3 ovarian): > 100 µM

From PubChem BioAssay (NCI)
